Measured values taken from patent EP0711558A1, “Compositions for topical application to skin, hair and nails” (UNILEVER PLC, priority 1994, dated 1996).
Where two headings read alike, the source gives them in different places.

What was measured:
[1] = test system: Normal human keratinocytes; test: Vitamin D3 metabolites' uptake by keratinocytes (cell associated radioactivity); format: in vitro ADME; details: for cell associated radioactivity: 60 picomolar; for rate of uptake by keratinocytes: Table 6, in words
Procedure: Vitamin D₃ Metabolites' Uptake:
Normal human keratinocytes were grown to confluence in Keratinocyte growth medium (KGM) containing 0.15 mM calcium. Medium was changed to fresh medium. The cells were then incubated in duplicate with 10,000 cpm (60 picomolar, or 25 picogram/ml medium) of 25-OH-D₃ or 1,25-(OH) ₂D₃ for various times (0 to 240 minutes). At different time intervals indicated in the Table below, the medium of appropriate wells were aspirated, and the wells were washed three times with a 0.2% bovine serum albumin solution in 50 mM Tris/0.15 M sodium chloride buffer pH 7.4. After the wash the cells in the wells were dissolved in 0.1 N sodium hydroxide, neutralized with 0. 1 N hydrochloric acid, mixed with 5 ml of scintillation fluid (Ecolume) and counted in a beta counter. The amount of cpm associated with the cells was calculated as the percent of total cpm added for each time point studied. Data in the table is expressed as cell associated radioactivity as % of total added. Each reported result is a mean of duplicate determinations.

[2] = test system: Normal human keratinocytes; test: Rate of DNA synthesis in keratinocytes (3H-thymidine incorporation; a decrease indicates growth inhibition / differentiation); format: cell-based; details: for cell growth inhibition: Table 1 (image); for activity at 3 µM: 3 μM lipid alone, read-out: DNA synthesis, 0 nM 25-OH-D3
Procedure: Methodology Used for Determining the Rate of DNA Synthesis in Keratinocytes After Treatment With Various Actives
• 1. Normal human keratinocytes isolated from neonatal foreskins by trypsin treatment were grown in DME medium/10% fetal calf serum in the presence of irradiated 3T3 mouse fibroblasts for establishing dividing keratinocyte colonies. Keratinocytes were grown under the above condition until their third passage. • 2. For the experiments, third passage keratinocytes were plated into a serum-free keratinocyte growth medium (KGM; obtained from Clonetics Corporation, San Diego, CA) containing 0.15 mM calcium. 20,000 to 30,000 cells were plated into each well of 24 well cell culture plates and grown for 5 days, until the cells reach about 80% confluence. • 3. Medium was changed to fresh medium and the various test materials were added to the medium from an ethanolic stock solution (10 AM). The final ethanol concentration in the cultures was kept below 0.2%. Control cultures received no tested material but were dosed with 0.2% ethanol. Each compound or combination was tested in three separate wells. By 4PM, 1 uCi of ³H-thymidine (Amersham Corp., Sp activity 40 Ci/mmol) was added to the 1 ml medium in each well. The cells were incubated overnight and 24 hours later (10 AM next day) the amount of ³H-thymidine associated with the cellular DNA of keratinocytes was assessed as described below. • 4. The medium was aspirated, and the wells washed with 1 ml phosphate-buffered saline. The DNA and proteins of the cells in the plate were then precipitated by adding 1 ml of ice-cold 10% trichloroacetic acid (TCA). The plates were left on ice for 30 minutes to complete the precipitation process. TCA was then aspirated and each well was then washed four times with 5% TCA. The plates were then dried on a filter pad and the cells in the wells were dissolved in 0.5 ml of 0.1 N sodium hydroxide. The sodium hydroxide was then neutralized using 0.1 N hydrochloric acid and the solution (1 ml total volume) was then transferred to a scintillation vial. 100 ul samples from each vial were used for protein assay using BCA protein assay reagent obtained from Pierce Chemical Company. 8 ml of a scintillation fluid (Ecolume) was added to the rest of the solution in the vial, and the vials were counted in a scintillation counter to determine the amount of radioactivity in each vial. The DNA synthesis rate was then calculated as cpm ³H thymidine incorporated into total cellular DNA/microgram of cell protein for each individual well. Mean and standard deviation for each group was also calculated. […] All lipids listed in Tables 1-5 below were synthesized in-house. 25-OH-D₃ and 1,25-(OH)₂D₃ were obtained from Hoffman La Roche. Vitamin D ₃ was obtained from Sigma. • 6.

keratinocytes = details: as shown by Bikle et al.; cited from earlier work
[3] = 0 minutes, mean of duplicate determinations
[4] = 100 nM, alone, 25-OH-D3 in two experiments, 1,25-(OH)2D3 in one experiment
[5] = 1000 nM, compound alone, consistently observed only at this concentration
[6] = Homo sapiens, Keratinocyte, 24 h, Table 5

With C=C1CC[C@H](O)C/C1=C/C=C1\CCC[C@]2(C)[C@@H]([C@H](C)CCCC(C)(C)O)CC[C@@H]12 [Formula 25-OH-D3, 25-hydroxycholecalciferol] the cell associated radioactivity [1, 3] was 2.5 % of total added, the cell associated radioactivity ([1]; 2 minutes) was 3.2 % of total added and the cell associated radioactivity ([1]; 5 minutes) was 0.3 % of total added. For the same compound, the cell associated radioactivity ([1]; 10 minutes) was 3.4 % of total added, the cell associated radioactivity ([1]; 15 minutes) was 8.3 % of total added and the cell associated radioactivity ([1]; 30 minutes) was 8.1 % of total added. For the same compound, the cell associated radioactivity ([1]; 60 minutes) was 6.2 % of total added, the cell associated radioactivity ([1]; 120 minutes) was 6.8 % of total added and the cell associated radioactivity ([1]; 240 minutes) was 9.8 % of total added. The “rate of uptake by keratinocytes” value [1] was “substantially slower rate”, the activity at 0.001 µM ([2]; Homo sapiens, Keratinocyte, 24 h, 1 nM 25-OH-D3, no ceramide, read-out: DNA synthesis, 25-OH-D3 alone) was 99.3 ± 1.91% and the activity at 0.01 µM ([2]; Homo sapiens, Keratinocyte, 24 h, 10 nM 25-OH-D3, no ceramide, read-out: DNA synthesis, 25-OH-D3 alone) was 97.2 ± 5.92%. For the same compound, the activity at 0.1 µM ([2]; Homo sapiens, Keratinocyte, 24 h, 100 nM 25-OH-D3, no ceramide, read-out: DNA synthesis, 25-OH-D3 alone) was 86.5 ± 5.47%, the activity at 1 µM ([2]; Homo sapiens, Keratinocyte, 24 h, 1000 nM 25-OH-D3, no ceramide, read-out: DNA synthesis, 25-OH-D3 alone) was 67.8 ± 5.92% and the minimal effective concentration ([2]; Homo sapiens, Keratinocyte, 24 h, 25-OH-D3 employed alone, read-out: concentration of 25-OH-D3 at which inhibition of keratinocyte growth was observed) was 0.1 to 1 µM. The activity at 0.01 µM ([2]; Homo sapiens, Keratinocyte, 24 h, Table 4, 10 nM vitamin D3 or its metabolite, no ceramide, read-out: DNA synthesis, No ceramide) was 95.3 ± 6.9%, the activity at 0.1 µM ([2]; Homo sapiens, Keratinocyte, 24 h, Table 4, 100 nM vitamin D3 or its metabolite, no ceramide, read-out: DNA synthesis, No ceramide) was 88.5 ± 7.2% and the activity at 0.01 µM ([2]; Homo sapiens, Keratinocyte, 24 h, Table 5, 10 nM 25-OH-D3, No ceramide, read-out: DNA synthesis, 10 nM 25-OH-D3) was 95.3 ± 6.9%. For the same compound, the activity at 0.1 µM ([2]; Homo sapiens, Keratinocyte, 24 h, Table 5, 100 nM 25-OH-D3, No ceramide, read-out: DNA synthesis, 100 nM 25-OH-D3) was 88.5 ± 7.2%, the cell growth inhibition [2, 4] was “cell growth inhibition was also observed” and the cell growth inhibition [2, 5] was “statistically significant cell growth inhibition”.
Compound CCCCCCCCCCCCCCCCN(CC(O)CO)C(C)=O (stereo not drawn) [neoceramide (Formula F), N-(2,3-dihydroxypropyl)-N-(hexadecyl)ethanamide] has an activity at 3 µM [2, 6] of 81.1 ± 4.9%.
With CCCCCCCCCCCCN(CC(O)CO)C(=O)C(O)CCCCCC (stereo not drawn) [neoceramide (Formula M), N-(2,3-dihydroxypropyl)-N-(dodecyl)-2-hydroxyoctnamide] the activity at 3 µM [2, 6] was 81.5 ± 6.4%.
CCCCCCCCCCCCCCCCN(CC(O)CO)C(=O)C(O)CCCCCC (stereo not drawn) [neoceramide (Formula H), N-(2,3-dihydroxypropyl)-N-(hexadecyl)-2-hydroxyoctanamide] gave an activity at 3 µM [2, 6] of 85.7 ± 0.9%.
With C=C1CC[C@H](O)C/C1=C/C=C1\CCC[C@]2(C)[C@@H]([C@H](C)CCCC(C)C)CC[C@@H]12 [vitamin D3, Vitamin D₃] the growth inhibition ([2]; vitamin D3 employed alone (Table 4)) was “does not show statistically significant growth inhibition” and the “synergy with the ceramide in inhibiting keratinocyte growth” value ([2]; with ceramide of Formula A, even at 100 nM vitamin D3) was “did not show any synergy”.
With CCCCCCCCCCCCCCCCN(CC(O)CO)C(=O)CCCCC (stereo not drawn) [neoceramide (Formula G), N-(2,3-dihydroxypropyl)-N-(hexadecyl)hexanamide] the activity at 3 µM [2, 6] was 103 ± 12.3%.
Compound CCCCCCCCCCCCCCC(O)CN(CCO)C(=O)CCCCC (stereo not drawn) [pseudoceramide (Formula D)] has an activity at 3 µM [2, 6] of 62 ± 12.8%.
CCCCCCCCCCCCCCCCOCC(O)CN(CCO)C(C)=O (stereo not drawn) [pseudoceramide (Formula E)] gave an activity at 3 µM [2, 6] of 95.9 ± 22%.
In the case of C=C1/C(=C\C=C2/CCC[C@]3(C)[C@@H]([C@H](C)CCCC(C)(C)O)CC[C@@H]23)C[C@@H](O)C[C@@H]1O [1,25-(OH)2D3, 1,25-dihydroxycholecalciferol], the cell associated radioactivity [1, 3] is reported as 0.8 % of total added, the cell associated radioactivity ([1]; 2 minutes) is reported as 2.7 % of total added and the cell associated radioactivity ([1]; 5 minutes) is reported as 4.2 % of total added. For the same compound, the cell associated radioactivity ([1]; 10 minutes) was 13.0 % of total added, the cell associated radioactivity ([1]; 15 minutes) was 10.0 % of total added and the cell associated radioactivity ([1]; 30 minutes) was 20.0 % of total added. The cell associated radioactivity ([1]; 60 minutes) was 15.6 % of total added, the cell associated radioactivity ([1]; 120 minutes) was 26.2 % of total added and the cell associated radioactivity ([1]; 240 minutes) was 30.8 % of total added. The “rate of uptake by keratinocytes” value [1] was “rapidly taken up”, the catabolism by keratinocytes (keratinocytes) was “catabolized to inactive metabolites rapidly” and the cell growth inhibition [2, 4] was “cell growth inhibition was also observed”. The cell growth inhibition [2, 5] was “statistically significant cell growth inhibition”.
